Consider six compounds from patent US4233403A, “Amylase assay” (E. I. Du Pont de Nemours and Company, priority 1978, dated 1980).

Test [1] concerns α-glucosidase. As to the kind of experiment: blank rate: release of 4-nitrophenol from the substrate by the maltase without amylase. It is filed as biochemical. An excerpt:
When a maltase, such as α-glucosidase is used, a side reaction which gives rise to a blank rate occurs because of the reactivity of the maltase with the substrate. This means that even in the absence of α-amylase, there will be release of the phenol. Since the maximum velocity of product release from maltase decreases with increasing n, the growth of a blank rate is slower as n increases. One would expect, then, that the blank rate for G5 would be less than that for G4. This is verified by experimentation. However, an additional factor is involved in the choice between higher and lower oligosaccharides (i.e., G4 or G5) as the substrate. In all reactions of the substrate with amylase and reactions of maltase with the substrate, the rate increases, as a function of substrate concentration, to an optimum, at which point it levels off. The substrate concentration at which optimization occurs appears to increase with increasing n so that more of the substrate (and the maltase) must be used to optimize (linearize) the standard curve. For expensive chemicals, this is an important consideration.
A sample of α-(4-nitrophenyl) maltotetraoside (G4 pNp) prepared in accordance with Example 1H of U.S. Patent Application Ser. No. 704,975, filed on the same day as this application, was dissolved in 66.7 mM sodium phosphate buffer, pH 6.5, to provide various substrate concentrations ranging from 2 to 8 mg/3 ml. […]
After the blank rate was measured at 410 nm, using a Gilford spectrophotometer, the reaction was initiated by adding 0.1 ml of an Elevated Enzyme Control Product sold by the E. I. du Pont de Nemours and Company (1150 Somogyi Units per deciliter (SU/dl) amylase) diluted 1:1 with Du Pont Enzyme Diluent. […] The total reaction rate was then measured using the Gilford spectrophotometer, and by subtracting the blank rate from the total rate, the net reaction rate was obtained. […]
After the blank rate was measured, as described in Example 1 above, the reaction was […] by adding 0.1 ml of Du Pont Elevated Enzyme Control Product, diluted 1:1 with Du Pont Enzyme Diluent. The reaction rates for various amylase sample concentrations were measured as discussed in Example 1 above, and a standard curve was generated. From this curve, the sensitivity in mA/min/SU/dl was measured. […]
After the blank rate was measured in a Gilford spectrophotometer at 410 nm, the reaction was initiated by adding 0.1 ml of the Du Pont Elevated Enzyme Control Product, diluted 1:1 with Du Pont Enzyme Diluent. The reaction rates for the various amylase sample concentrations were measured, using the Gilford spectrophotometer, and a standard curve was generated. From this curve, the sensitivity in mA/min/SU/dl was measured. […]

The subject of test [2] is α-amylase. As to the kind of experiment: amylase assay with nitrophenyl oligosaccharide substrate plus α-glucosidase, rate at 410 nm, standard curve. As to conditions: for Sensitivity: 4 mg/3 ml G4 pNp, 7.5 IU/3 ml α-glucosidase, pH 6.5, 37° C., 410 nm, from standard curve. It is filed as biochemical. On the procedure:
A sample of α-(4-nitrophenyl) maltotetraoside (G4 pNp) prepared in accordance with Example 1H of U.S. Patent Application Ser. No. 704,975, filed on the same day as this application, was dissolved in 66.7 mM sodium phosphate buffer, pH 6.5, to provide various substrate concentrations ranging from 2 to 8 mg/3 ml. As described in U.S. Ser. No. 704,975, this substrate sample has been purified using a Sephadex® LH-20 Chromatographic Column. α-Glucosidase of various concentrations ranging from 2.5 to 12.5 International Units per three milliliters of solution (IU/3 ml) was then added to the substrate solution and the volume of the solution was brought up to 3.0 ml. The solution was incubated at 37° C. for 1 to 10 minutes.
After the blank rate was measured at 410 nm, using a Gilford spectrophotometer, the reaction was initiated by adding 0.1 ml of an Elevated Enzyme Control Product sold by the E. I. du Pont de Nemours and Company (1150 Somogyi Units per deciliter (SU/dl) amylase) diluted 1:1 with Du Pont Enzyme Diluent. This level of amylase is approximately six times the upper normal serum level. The total reaction rate was then measured using the Gilford spectrophotometer, and by subtracting the blank rate from the total rate, the net reaction rate was obtained.
Using these optimum values of G4 pNp and α-glucosidase in a reaction solution of 3 ml, the reaction rates for various amylase sample concentrations were measured and a standard curve was generated. From this curve, the sensitivity in mA/min/SU/dl was measured. The standard curve for this sample is given in FIG. 1; the blank rate and sensitivity are given for this and other examples in Table II.
The G4 pNp so formed was dissolved in 66.7 mM sodium phosphate buffer, pH 6.5, to provide a substrate concentration of 4 mg/3 ml. Then 7.5 IU/3 ml of α-glucosidase was added to the substrate solution and the volume of the solution was brought up to 3.0 ml. The solution was incubated at 37° C. for one to ten minutes.
After the blank rate was measured, as described in Example 1 above, the reaction was […] by adding 0.1 ml of Du Pont Elevated Enzyme Control Product, diluted 1:1 with Du Pont Enzyme Diluent. The reaction rates for various amylase sample concentrations were measured as discussed in Example 1 above, and a standard curve was generated. From this curve, the sensitivity in mA/min/SU/dl was measured.
A sample of α-(4-nitrophenyl) maltotetraoside, prepared in accordance with Example 1G of U.S. Patent Application Ser. No. 704,975, was dissolved in 66.7 mM sodium phosphate buffer, pH 6.5, to provide a substrate concentration of 4 mg/3 ml. Then 7.5 IU/3 ml of α-glucosidase was added to the substrate solution and the volume of the solution was brought up to 3.0 ml. The solution was incubated at 37° C. for one to ten minutes.
After the blank rate was measured in a Gilford spectrophotometer at 410 nm, the reaction was initiated by adding 0.1 ml of the Du Pont Elevated Enzyme Control Product, diluted 1:1 with Du Pont Enzyme Diluent. The reaction rates for the various amylase sample concentrations were measured, using the Gilford spectrophotometer, and a standard curve was generated. From this curve, the sensitivity in mA/min/SU/dl was measured.
A sample of α-(4-nitrophenyl) maltopentaoside (G5 pNp), prepared in accordance with Example 2E of U.S. Patent Application Ser. No. 704,975, was dissolved in 66.7 mM sodium phosphate buffer, pH 6.5, to provide various substrate concentrations ranging from 4.0 to 12.0 mg/3 ml. α-Glucosidase of various activity ranging from 15 to 45 IU/3 ml was then added to the substrate solution and the volume of the solution was brought up to 3.0 ml. The solution was incubated at 37° C. for one to ten minutes.
Initial tests were conducted using 4.0 mg/3 ml G5 pNp and three α-glucosidase concentrations, 7.0, 14.0, and 28.0 IU/3 ml. […]

The test system of test [3] is α-amylase. As to the kind of experiment: cleavage of α-(4-nitrophenyl)maltoside by α-amylase. It is filed as biochemical, human. As for the experimental part: A. P. Jansen and P. G. A. B. Wydeveld, Nature, 182, 525 (1958) postulate that α-(p-nitrophenyl)maltoside could be a substrate for an amylase assay. […] They reported: (1) Incubation of samples of human urine, saliva, duodenal contents and only incidentally serum with α-(p-nitrophenyl)maltoside at 37° for 16 hours produces 4-nitrophenol, identified spectrophotometrically by mixing the hydrolyzate with 0.02 N sodium hydroxide. (2) The hydrolysis was inhibited by protein precipitants such as 10% trichloroacetic acid and 0.5 N silver nitrate. […] In contrast to the teaching of Jansen et al., the method of this invention produces amylase analyses in one hour or less.

[4] abbreviates: 4 mg/3 ml G4 pNp, 7.5 IU/3 ml α-glucosidase, 66.7 mM sodium phosphate pH 6.5, 37° C., 410 nm, no amylase.

Several values for one entry are separate records, joined by “and”; a condition that tells them apart may be missing. Identical values can stand only once.

Take `O=[N+]([O-])c1ccc(O[C@H]2O[C@H](CO)[C@@H](O[C@H]3O[C@H](CO)[C@@H](O[C@H]4O[C@H](CO)[C@@H](O[C@H]5O[C@H](CO)[C@@H](O)[C@H](O)[C@H]5O)[C@H](O)[C@H]4O)[C@H](O)[C@H]3O)[C@H](O)[C@H]2O)cc1` [Example 1, α-(4-nitrophenyl) maltotetraoside]: the “Blank Rate” value in test [1] (setting [4]) turned out to be 5.0 mA/min. Also, the Sensitivity in test [2] amounted to 0.115 mA/min/SU/dl.
As to `O=[N+]([O-])c1ccc(O[C@H]2O[C@H](CO)[C@@H](O[C@H]3O[C@H](CO)[C@@H](O[C@H]4O[C@H](CO)[C@@H](O[C@H]5O[C@H](CO)[C@@H](O)[C@H](O)[C@H]5O)[C@H](O)[C@H]4O)[C@H](O)[C@H]3O)[C@H](O)[C@H]2O)cc1` [Example 2, α-(4-nitrophenyl) maltotetraoside], in test [2], the Sensitivity is recorded as 0.231 mA/min/SU/dl.
Consider `O=[N+]([O-])c1ccc(O[C@H]2O[C@H](CO)[C@@H](O[C@H]3O[C@H](CO)[C@@H](O[C@H]4O[C@H](CO)[C@@H](O[C@H]5O[C@H](CO)[C@@H](O)[C@H](O)[C@H]5O)[C@H](O)[C@H]4O)[C@H](O)[C@H]3O)[C@H](O)[C@H]2O)cc1` [Example 3, α-(4-nitrophenyl) maltotetraoside], for which the “Blank Rate” value in test [1] (setting [4]) is 10.3-13.3 mA/min and 10.3 to 13.3 mA/min. Moreover, the Sensitivity in test [2] is 0.110 mA/min/SU/dl. In test [2] (reaction quenched after five minutes with 0.2 M Na2CO3 or 0.002 N NaOH, versus rate assay at pH 6.5), the “increase in sensitivity, end point determination after quenching” value is “five to ten fold”.
On to `O=[N+]([O-])c1ccc(O[C@H]2O[C@H](CO)[C@@H](O[C@H]3O[C@H](CO)[C@@H](O[C@H]4O[C@H](CO)[C@@H](O[C@H]5O[C@H](CO)[C@@H](O)[C@H](O)[C@H]5O)[C@H](O)[C@H]4O)[C@H](O)[C@H]3O)[C@H](O)[C@H]2O)cc1` [Example 4, α-(4-nitrophenyl) maltotetraoside], for which the “Blank Rate” value in test [1] (setting [4]) is on record as 3.0 mA/min. The Sensitivity in test [2] is listed as 0.116 mA/min/SU/dl.
Take `O=[N+]([O-])c1ccc(O[C@H]2O[C@H](CO)[C@@H](O[C@H]3O[C@H](CO)[C@@H](O[C@H]4O[C@H](CO)[C@@H](O[C@H]5O[C@H](CO)[C@@H](O[C@H]6O[C@H](CO)[C@@H](O)[C@H](O)[C@H]6O)[C@H](O)[C@H]5O)[C@H](O)[C@H]4O)[C@H](O)[C@H]3O)[C@H](O)[C@H]2O)cc1` [G5 pNp, α-(4-nitrophenyl) maltopentaoside]: the Blank Rate in test [1] (4.0 mg/3 ml G5 pNp, α-glucosidase 7.0, 14.0 and 28.0 IU/3 ml (each case), pH 6.5, 37° C.) is reported as 3.0 mA/min. Moreover, the “Sensitivity (estimated, non-linear curves)” value in test [2] (4.0 mg/3 ml G5 pNp, α-glucosidase 7.0, 14.0, 28.0 IU/3 ml) is listed as “greater than 0.160 mA/min/IU/dl”.
On to `O=[N+]([O-])c1ccc(O[C@H]2O[C@H](CO)[C@@H](O[C@H]3O[C@H](CO)[C@@H](O)[C@H](O)[C@H]3O)[C@H](O)[C@H]2O)cc1` [α-(4-Nitrophenyl)maltoside], for which, in test [3], the “cleavage of this compound by α-amylase” value is “extremely slow”.
